In PMC3583241, “Hit identification of IKKβ natural product inhibitor” (BMC Pharmacology & Toxicology, 2013):

Target: T1, IKKβ (Homo sapiens, UniProt O14920)
T1 construct: gene IKBKB; human recombinant IKKβ
T1 sequence (O14920 1-756): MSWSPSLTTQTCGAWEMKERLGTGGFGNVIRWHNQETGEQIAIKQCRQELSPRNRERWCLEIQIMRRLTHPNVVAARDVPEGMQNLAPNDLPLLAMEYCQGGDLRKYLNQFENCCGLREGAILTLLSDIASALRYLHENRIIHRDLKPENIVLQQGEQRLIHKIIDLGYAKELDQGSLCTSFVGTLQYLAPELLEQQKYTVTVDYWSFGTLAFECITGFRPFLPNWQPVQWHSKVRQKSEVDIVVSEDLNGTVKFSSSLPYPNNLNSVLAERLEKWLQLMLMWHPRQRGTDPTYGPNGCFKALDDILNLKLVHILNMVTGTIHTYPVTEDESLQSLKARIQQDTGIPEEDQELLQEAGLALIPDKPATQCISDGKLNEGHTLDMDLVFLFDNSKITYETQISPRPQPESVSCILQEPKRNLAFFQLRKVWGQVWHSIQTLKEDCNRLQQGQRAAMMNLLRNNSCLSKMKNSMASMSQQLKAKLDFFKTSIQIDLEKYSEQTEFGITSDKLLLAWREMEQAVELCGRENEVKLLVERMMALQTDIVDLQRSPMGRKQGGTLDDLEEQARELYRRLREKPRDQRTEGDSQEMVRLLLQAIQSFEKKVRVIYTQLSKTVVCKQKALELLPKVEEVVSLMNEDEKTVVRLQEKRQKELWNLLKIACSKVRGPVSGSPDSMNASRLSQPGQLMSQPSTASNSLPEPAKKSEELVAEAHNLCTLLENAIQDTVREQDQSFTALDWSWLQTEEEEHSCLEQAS
Test: ELISA-based K-LISA IKKβ kinase assay with GST-IκBα substrate
Format: biochemical

- IC50: ~50 µM
SMILES: O=C(O)c1ccccc1C(=O)NCCC(c1ccccc1)c1ccco1 (stereo not shown) [compound 1, benzoic acid derivative (1)]
